In ChEMBL document CHEMBL1201862, “PubChem BioAssay data set” (2004) one finds IC50 and AC50 data, which are given here for 4 compounds.

One assay addresses Phospholipase D2 (Homo sapiens, UniProt O14939). Put plainly: PLD2 Cellular Concentration Response Study. It is filed as functional.
The next assay concerns the target Phospholipase D1 (Homo sapiens, UniProt Q13393). Put plainly: PLD1 Cellular Concentration Response Study. Format: functional.
Assay [1] is described as follows: P. falciparum 3D7-ScDHODH growth inhibitors, dose response, SYBR Green, dry powder samples (AID 1159570).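 Note: parasite growth measured after 72 hours of compound exposure.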 Format: functional, cell-based.
Assay [2] is described as follows: P. falciparum Dd2 growth inhibitors, dose response, SYBR Green, cherry-picked samples (AID 1159567). Format: functional, cell-based.
Assay [3] is described as follows: P. falciparum Dd2 growth inhibitors, dose response, SYBR Green, dry powder samples (AID 1159566).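 Note: potency for growth inhibition with lower SYBR green DNA signal.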 It is filed as functional, cell-based.
Assay [4] in a line: P. falciparum ATP4 D1247Y mutant growth inhibitors, dose response, NITD609-resistant line, SYBR Green, dry powder (AID 1159571).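 Note: parasites synchronized at ring stage by sorbitol before testing.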 It is filed as functional, cell-based.
Assay [5] in a line: HepG2 cell cytotoxicity, dose response, cytotoxicity control, plate reader, dry powder, set 6 (AID 743311). It is filed as functional, cell-based.
Assay [6] can be described thus: A549 cell cytotoxicity, dose response, cytotoxicity control, plate reader, dry powder, set 6 (AID 743312). Format: functional, cell-based.
The nature of a further assay: cells. Particulars: HEK293.
A short description of assay [7]: HeLa 2N DNA content increase, dose response, cell-based, IC50 (AID 1117349). It is filed as functional.
Assay [8] in a line: Concentration-dependent survival of SW480 colon cancer line, luminescence detection with CellTiter-Glo, half-maximal inhibitory concentration (AID 1117338). Format: functional.
A short description of assay [9]: Dose-response inhibition of insulin secretion in a rat insulinoma line at 5 mM glucose (AID 1117331). It is filed as functional, cell-based. Particulars: INS-1E.
Assay [10] can be described thus: RKO cell viability reduction, dose response, CellTiter-Glo luminescence (AID 1117322). It is filed as functional.
Assay [11] can be described thus: SNU-C1 cell viability reduction, dose response, CellTiter-Glo luminescence (AID 1117323). It is filed as functional, cell-based.
The nature of assay [12]: cytotoxicity toward Colo320 cells – cell-based, CellTiter-Glo luminescence, IC50, dose response (AID 1117334). Format: functional. Particulars: COLO 320.
Assay [13] can be described thus: HeLa 4N DNA content increase, dose response, cell-based, IC50 (AID 1117351). It is filed as functional.
A short description of assay [14]: cytotoxicity toward HT-29 cells – cell-based, CellTiter-Glo luminescence, IC50, dose response (AID 1117330). Format: functional.
Assay [15] can be described thus: CellTiter-Glo luminescent dose response of DLD-1 viability loss (AID 1117352). It is filed as functional.
Assay [16] is described as follows: HCT116 cell viability decrease, GSK3B pretreatment – CellTiter-Glo, IC50, dose response (AID 1117339). It is filed as functional. As to conditions: HCT-116.

Activity calls are given as the source filed them. Some results are limits rather than exact numbers.

Phospholipase D2, sequence (O14939 whole entry): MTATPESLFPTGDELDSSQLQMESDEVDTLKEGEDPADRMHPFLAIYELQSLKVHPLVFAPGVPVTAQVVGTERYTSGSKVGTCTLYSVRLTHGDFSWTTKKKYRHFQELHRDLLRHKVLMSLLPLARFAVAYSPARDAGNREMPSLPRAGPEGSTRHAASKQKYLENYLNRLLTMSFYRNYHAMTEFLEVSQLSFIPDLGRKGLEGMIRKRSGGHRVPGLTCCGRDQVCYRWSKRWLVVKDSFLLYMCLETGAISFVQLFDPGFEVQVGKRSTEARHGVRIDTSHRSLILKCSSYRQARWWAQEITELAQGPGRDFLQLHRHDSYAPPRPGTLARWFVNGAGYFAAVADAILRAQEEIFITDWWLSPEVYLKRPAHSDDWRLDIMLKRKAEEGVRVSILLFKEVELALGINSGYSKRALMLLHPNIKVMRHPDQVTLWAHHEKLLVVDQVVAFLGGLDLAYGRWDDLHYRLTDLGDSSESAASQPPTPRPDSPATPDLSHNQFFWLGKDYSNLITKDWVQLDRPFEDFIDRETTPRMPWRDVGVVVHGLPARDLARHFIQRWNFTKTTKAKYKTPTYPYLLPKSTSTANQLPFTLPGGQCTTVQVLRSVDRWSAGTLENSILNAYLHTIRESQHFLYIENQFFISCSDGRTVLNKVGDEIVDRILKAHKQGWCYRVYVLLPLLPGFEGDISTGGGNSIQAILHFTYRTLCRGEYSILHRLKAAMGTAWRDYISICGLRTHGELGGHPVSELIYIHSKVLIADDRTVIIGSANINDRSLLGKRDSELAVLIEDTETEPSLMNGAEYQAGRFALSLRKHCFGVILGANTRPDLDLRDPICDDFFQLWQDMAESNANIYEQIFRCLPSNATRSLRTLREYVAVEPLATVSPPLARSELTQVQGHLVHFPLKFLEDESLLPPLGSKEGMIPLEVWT
Phospholipase D1, sequence (Q13393 whole entry): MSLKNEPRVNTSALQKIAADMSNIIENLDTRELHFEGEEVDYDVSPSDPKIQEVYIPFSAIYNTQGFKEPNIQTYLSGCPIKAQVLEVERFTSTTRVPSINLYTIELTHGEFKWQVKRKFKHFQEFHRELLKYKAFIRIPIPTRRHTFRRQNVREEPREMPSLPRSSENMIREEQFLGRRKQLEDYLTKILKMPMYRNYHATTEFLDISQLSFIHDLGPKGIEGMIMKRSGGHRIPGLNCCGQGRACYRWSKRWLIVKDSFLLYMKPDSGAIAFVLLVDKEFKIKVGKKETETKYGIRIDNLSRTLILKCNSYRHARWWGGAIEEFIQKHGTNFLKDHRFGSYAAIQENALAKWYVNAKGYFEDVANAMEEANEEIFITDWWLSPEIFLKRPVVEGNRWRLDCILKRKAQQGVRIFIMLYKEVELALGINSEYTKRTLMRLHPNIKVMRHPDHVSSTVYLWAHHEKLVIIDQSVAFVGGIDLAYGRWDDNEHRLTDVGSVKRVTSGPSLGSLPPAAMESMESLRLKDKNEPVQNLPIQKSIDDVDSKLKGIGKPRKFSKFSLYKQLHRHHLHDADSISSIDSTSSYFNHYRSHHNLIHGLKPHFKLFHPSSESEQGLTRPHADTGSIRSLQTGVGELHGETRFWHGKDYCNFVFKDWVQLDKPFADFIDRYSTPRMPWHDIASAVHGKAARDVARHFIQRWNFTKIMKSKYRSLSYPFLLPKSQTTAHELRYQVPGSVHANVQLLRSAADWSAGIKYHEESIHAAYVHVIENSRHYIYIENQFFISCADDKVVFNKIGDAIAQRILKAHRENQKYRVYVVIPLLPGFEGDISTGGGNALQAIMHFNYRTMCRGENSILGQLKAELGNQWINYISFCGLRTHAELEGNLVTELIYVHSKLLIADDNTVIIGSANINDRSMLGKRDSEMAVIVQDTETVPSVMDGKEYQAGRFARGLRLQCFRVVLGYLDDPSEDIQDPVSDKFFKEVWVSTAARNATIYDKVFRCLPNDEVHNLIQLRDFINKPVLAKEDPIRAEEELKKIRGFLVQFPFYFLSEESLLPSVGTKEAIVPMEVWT

Take `O=C(NCCN1CCC2(CC1)C(=O)NCN2Cc1cccnc1)c1cc2cc(F)ccc2[nH]1`: the results for the IC50 on Phospholipase D2 and on Phospholipase D1 were 0.12 µM (active) and 3.15 µM (active), respectively.
Turning to `COc1ccc2c3c(n(C)c2c1)[C@@H](CO)N(C(=O)c1ccc(F)cc1)CC31CCN(C(=O)Nc2ccc(F)cc2)CC1`, the AC50 in [1] was 1.04 µM (active); in [2], 1.89 µM (active); in assay [3], 0.795 µM (active); in assay [4] it was 1.06 µM (active).
Regarding `Cc1ccc(C(C)C)c(OCCn2c(CO)nc3ccccc32)c1`, the AC50 in assay [5] was 37.4 µM (active); in assay [6], 38.5 µM (active); in “cells”, 32.2 µM (active).
With `CC(=O)Oc1ccc(C2(c3ccc(OC(C)=O)cc3)Oc3ccccc3NC2=O)cc1` [BISOXATIN ACETATE], the IC50 in assay [7] is > 10 µM (inactive); in assay [8], 9.19 µM (inactive); in [9], > 33.3 µM (inactive); in [10], 9.23 µM (inactive); in [11], > 20 µM (inactive); in [12] it was > 20 µM (inactive). Also, the IC50 is > 10 µM (inactive) in assay [13], > 20 µM (inactive) in [14], 19.7 µM (inactive) in [15] and 3.26 µM (active) in [16].
